Data taken from PMC5321434, “Dihydrobenz[e][1,4]oxazepin-2(3H)-ones, a new anthelmintic chemotype immobilising whipworm and reducing infectivity in vivo” (PLoS Neglected Tropical Diseases, 2017).

Test system: adult T. muris
Assay: Ex vivo adult T. muris automated motility assay (primary/secondary screen at 100 μM and dose-response)
Set-up: species or system Trichuris muris
Settings: for PRIMARY_SCREEN_MINUS_LOG_FOLD_CHANGE_MOVEMENT: primary screen; for PRIMARY_SCREEN_MINUS_LOG_FOLD_CHANGE_MOVEMENT / SECONDARY_SCREEN_MINUS_LOG_FOLD_CHANGE_MOVEMENT: adult T. muris motility; for SECONDARY_SCREEN_MINUS_LOG_FOLD_CHANGE_MOVEMENT: secondary screen
Description: Severe combined immune deficiency (SCID) mice were bred in the Biological Services Facility at the University of Manchester. Both male and female SCID mice were infected with a high dose of 200 infective embryonated T. muris eggs via oral gavage. At day 35 post-infection, groups of 5 mice were killed and their […] colons removed. Guts were opened longitudinally, washed with pre-warmed Roswell Park Memorial Institute (RPMI) 1640 media supplemented with penicillin (500U/ml) and streptomycin (500μg/ml) and adult T. muris worms gently removed using fine forceps. Worms removed from SCID mice were maintained in RPMI-1640 media supplemented with penicillin (500U/ml) and streptomycin (500μg/ml) at approximately 37°C and studied on the same day. Using fine forceps, individual live worms were placed into 96 well plates containing 75μl of RPMI-1640 medium supplemented with penicillin (500U/ml) and streptomycin (500μg/ml) plus 1% final concentration of DMSO or compound dissolved in DMSO. In the primary screen the test compound concentration was 100μM. Plates were then incubated at 37°C, 5% CO2, and motility was analysed after 24 hours. Worm movement was quantified using an automated motility assay. This system gives an estimate of worm movement in each well by thresholding and quantifying pixel intensity variance over time. An earlier version of this system has been previously described. One adult T. muris worm was used per well, with one well per compound in each replicate of the primary screen. The primary screen was repeated each week for a period of four weeks giving four independent biological replicates from separate parasite batches for each compound. Dose-response curves were calculated with the four factor log-logistic model using the R package drc. The primary screen was carried out at 100μM final concentration. Assay plates were assigned unique IDs and statistical analysis was performed without knowledge of compound identities using R scripts. Once hit wells were identified, well/plate positions were mapped to compound identities using DataWarrior [28]. […] Compounds identified as having encouraging activity from the DMSO solution samples were then resynthesized for confirmatory testing.

[1] = combined primary and secondary screen minus log fold change in movement, adult T. muris, 100 μM
[2] = adult T. muris motility screen at 100 μM, combines primary and secondary screen minus log fold change in movement (mean where both are given)

Row | Compound | COMBINED_SCREEN_ACTIVITY [1] | PRIMARY_SCREEN_MINUS_LOG_FOLD_CHANGE_MOVEMENT (100 μM) | SECONDARY_SCREEN_MINUS_LOG_FOLD_CHANGE_MOVEMENT (100 μM) | COMBINED_SCREEN_ACTIVITY [2]
1 | O=C1COCc2ccc(-c3cccnc3)cc2N1Cc1ccccc1 [Compound 50] | 0.07509 | 0.07509 |  | 
2 | COc1ccc(CN2C(=O)COCc3ccccc32)cc1 [Compound 14] | -1.77 | -1.77 |  | 
3 | COCc1cccc(-c2ccc3c(c2)COCC(=O)N3Cc2cc(F)cc(F)c2)c1 [Compound 179] | 0.9799 | 0.9799 |  | 
4 | COc1cccc(CN2C(=O)COCc3cc(-c4ccccc4OC)ccc32)c1 [Compound 141] | -1.328 | -1.328 |  | 
5 | COCCN1C(=O)COCc2ccc(-c3ccccc3)cc21 [Compound 28] | -0.7597 | -1.727 | 0.2076 | 
6 | COc1ccc(-c2ccc3c(c2)N(Cc2ccccc2)C(=O)COC3)cc1 [Compound 100] | 3.027 | 3.027 |  | 
7 | COc1cccc(CN2C(=O)COCc3cc(-c4cccc(O)c4)ccc32)c1 [Compound 126] | 1.18 | 1.18 |  | 
8 | COCc1cccc(-c2ccc3c(c2)N(Cc2cccc(OC)c2)C(=O)COC3)c1 [Compound 172] | -0.3707 | -0.3707 |  | 
9 | COc1ccccc1-c1ccc2c(c1)COCC(=O)N2CCN1CCOCC1 [Compound 135] | -1.035 | -1.035 |  | 
10 | O=C1COCc2ccc(-c3cccnc3)cc2N1Cc1ccccc1Cl [Compound 107] | 2.19 | 2.19 |  | 
11 | CCN(CC)C(=O)c1cccc(-c2ccc3c(c2)N(Cc2ccccc2)C(=O)COC3)c1 [Compound 187] |  | 7.09 | 12.6188 | 9.854
12 | CC(C)N1C(=O)COCc2ccc(-c3cc(F)cc(F)c3)cc21 [Compound 39] | 3.736 | 3.736 |  | 
13 | O=C(O)c1cccc(-c2ccc3c(c2)N(Cc2cc(F)cc(F)c2)C(=O)COC3)c1 [Compound 178] | -2.449 | -2.449 |  | 
14 | COc1cccc(CN2C(=O)COCc3ccc(-c4cccc(F)c4)cc32)c1 [Compound 131] | -0.1165 | -0.1165 |  | 
15 | O=C1COCc2ccc(-c3ccncc3)cc2N1Cc1ccccc1 [Compound 49] | -0.743 | -0.743 |  | 
16 | O=C1COCc2ccc(-c3cc(F)cc(Cl)c3)cc2N1CCN1CCOCC1 [Compound 176] | -1.404 | -1.404 |  | 
17 | COc1ccccc1-c1ccc2c(c1)COCC(=O)N2Cc1ccccc1Cl [Compound 150] | -1.328 | -1.328 |  | 
18 | COc1cccc(CN2C(=O)COCc3ccc(-c4ccc5c(c4)OCO5)cc32)c1 [Compound 169] | 0.1266 | 0.1266 |  | 
19 | COc1cccc(CN2C(=O)COCc3cc(Br)ccc32)c1 [Compound 103] | 7.462 | 7.462 |  | 
20 | CC(C)N1C(=O)COCc2cc(Br)ccc21 [Compound 17] | -0.6442 | -0.6442 |  | 
21 | Cc1ccc(CN2C(=O)COCc3ccccc32)cc1 [Compound 7] | -0.007203 | -0.007203 |  | 
22 | O=C1COCc2cc(Br)ccc2N1CC1CCCCC1 [Compound 64] | 3.118 | 3.494 | 2.742 | 

Row | Compound | COMBINED_SCREEN_ACTIVITY [1] | PRIMARY_SCREEN_MINUS_LOG_FOLD_CHANGE_MOVEMENT (100 μM) | SECONDARY_SCREEN_MINUS_LOG_FOLD_CHANGE_MOVEMENT (100 μM) | COMBINED_SCREEN_ACTIVITY [2]
23 | COc1ccc(-c2ccc3c(c2)N(Cc2ccccc2Cl)C(=O)COC3)cn1 [Compound 153] | 0.2455 | 0.2455 |  | 
24 | O=C1COCc2ccc(-c3cc(F)cc(F)c3)cc2N1CCN1CCOCC1 [Compound 139] | -1.36 | -1.36 |  | 
25 | CN1C(=O)COCc2c(-c3ccc4c(c3)OCO4)cccc21 [Compound 27] | -0.9234 | -0.9234 |  | 
26 | CN(C)C(=O)c1ccc(CN2C(=O)COCc3cc(-c4ccc5c(c4)OCO5)ccc32)cc1 [Compound 192] |  | 10.5493 |  | 10.5493
27 | CC(C)N1C(=O)COCc2ccc(-c3ccccc3)cc21 [Compound 12] | 1.691 | 1.691 |  | 
28 | O=C1COCc2ccc(-c3cccc(C(F)(F)F)c3)cc2N1CCN1CCOCC1 [Compound 184] | -1.964 | -1.964 |  | 
29 | COCCN1C(=O)COCc2ccc(-c3ccc(OC)cc3)cc21 [Compound 46] | -1.143 | -1.143 |  | 
30 | Cc1ccccc1CN1C(=O)COCc2ccc(-c3cccc(CO)c3)cc21 [Compound 122] | -0.2289 | -1.039 | 0.5816 | 
31 | COc1cc(F)ccc1-c1ccc2c(c1)COCC(=O)N2CCN1CCOCC1 [Compound 161] | -1.617 | -1.617 |  | 
32 | Cn1cc(-c2ccc3c(c2)COCC(=O)N3Cc2ccc3c(c2)OCO3)cn1 [Compound 127] | 0.2993 | -0.5635 | 1.162 | 
33 | COc1ccc(-c2ccc3c(c2)N(CC2CC2)C(=O)COC3)cn1 [Compound 44] | -1.021 | -1.021 |  | 
34 | O=C1COCc2cc(-c3cccc(O)c3)ccc2N1Cc1ccc2c(c1)OCO2 [Compound 140] | -0.481 | -0.481 |  | 
35 | O=C1COCc2cc(-c3cccnc3)ccc2N1Cc1ccc2c(c1)OCO2 [Compound 125] | -0.9605 | -0.9605 |  | 
36 | COc1ccc(-c2ccc3c(c2)N(Cc2cc(F)cc(F)c2)C(=O)COC3)cn1 [Compound 156] | -1.039 | -1.039 |  | 
37 | O=C1COCc2ccc(-c3cccnc3)cc2N1CCc1ccccc1 [Compound 74] | -0.776 | -0.776 |  | 
38 | CN1C(=O)COCc2c(-c3cc(F)cc(Cl)c3)cccc21 [Compound 34] | -1.392 | -1.392 |  | 
39 | O=C1COCc2cc(-c3cccc(CO)c3)ccc2N1Cc1cc(F)cc(F)c1 [Compound 154] | -1.197 | -1.197 |  | 
40 | O=C1COCc2cc(-c3cc(F)cc(Cl)c3)ccc2N1CCN1CCOCC1 [Compound 174] | -1.356 | -1.356 |  | 
41 | CC(C)Oc1cccc(-c2ccc3c(c2)N(CCN2CCOCC2)C(=O)COC3)c1 [Compound 180] | -1.713 | -1.713 |  | 
42 | O=C1COCc2ccc(Br)cc2N1Cc1ccc(C(F)(F)F)cc1 [Compound 160] | 8.379 | 8.379 |  | 
43 | COc1ccc(-c2ccc3c(c2)N(CCc2ccccc2)C(=O)COC3)cc1OC [Compound 171] | 7.742 | 7.742 |  | 
